The nature of test [1]: Solid phase binding assay (ELISA) of biotin-labeled peptides to immobilized LPS. The conditions noted are these: biotin-labeled peptide 5-20 μg/mL; LPS 5 μg/mL coated. On the set-up: species or system E. coli. As to the method:
(§1) FIG. 3. Binding of biotin-labeled CD6-derived peptides to immobilized PAMPs from Gram- and Gram+ origin. Increasing concentrations (5-20 μg/mL) of biotin-labeled CD6- (PD1, PD2, PD3 and cons), DMBT1- (pbs1), and CD5- (PD1) derived peptides were added to 96-well ELISA plates sensitized with E. coli 0111:B4 LPS (A) or S. aureus LTA (B) (5 μg/mL each in PBS). Following overnight incubation at 4° C. bound peptides or proteins were developed by addition of horseradish peroxidase (HRP)-labeled streptavidin and 3,3′,5,5′-tetramethylbenzidine (TMB) substrate and further readings at OD 405-620 nm. Results are expressed as mean±SD of duplicates from one representative experiment of three performed. Statistical analysis was performed by two-way ANOVA (*,P<0.05; **, P<0.01; ***, P<0.001).
(§2) Solid Phase Binding Assays. 96-well microtiter plates (Nunc, Roskilde, Denmark) were coated overnight at 4° C. with 5 μg/mL of purified LPS (E. coli 0111:B4, Sigma L2630) or LTA (S. aureus, Sigma L2515) in PBS, and then incubated for 2 h at room temperature in blocking solution (20 mM Tris-HCl pH 7.4 plus 0.05% Tween 20 and 1% BSA). Biotin-labeled peptides/proteins (2.5-20 μg/mL) were added and incubated overnight at 4° C. in blocking solution. After extensive washing, bound peptides/proteins were detected by the addition of horseradish peroxidase (HRP)-labeled streptavidin (1:5,000 dilution; DAKO) for 1 h at room temperature. Color was developed by adding 3,3′,5,5′-tetramethylbenzidine (TMB) liquid substrate (Sigma), and optical density read at 405-620 nm.

Test [2] in a line: Solid phase binding assay (ELISA) of biotin-labeled peptides to immobilized LTA. More on the design: species or system S. aureus. As to conditions: biotin-labeled peptide 5-20 μg/mL; LTA 5 μg/mL coated. As to the method: as §1, §2
Background: In an ELISA, binding on a coated surface is turned into a signal by an enzyme label.

Test [3] concerns mouse splenocytes exposed to LPS. The experiment in a line: LPS-induced cytokine release by mouse splenocytes. As to conditions: LPS 0.5 μg/mL, 48 h, peptide 0.5, 5 and 20 μg/mL. Type of test: cell-based, C57BL/6 mice. As for the experimental part: FIG. 6. Effect of CD6-derived peptides on in vitro LIPS-induced cytokine release by mouse splenocytes. Total spleen cell suspensions (2×10^5) from C57BL/6 mice (n=7) were stimulated in triplicate for 48 h with LPS (0.5 μg/mL), in the presence or absence of increasing concentrations (0.5, 5, and 20 μg/mL) of CD6-derived peptides (PD1, PD2, PD3, and Pcons). Cytokine levels in culture supernatants were determined by ELISA and results expressed in pg/mL as mean±SD of triplicates. Viability was >75% at 48 h in all experimental conditions. Statistical analysis was performed using a 2-tailed Mann-Whitney test, with confidence intervals of 95% (*, P<0.05; **, P<0.01; ***, P<0.001).
Spleens from 6-8 week old C57BL/6 mice (Charles River) were disaggregated by filtering through a cell strainer and, after erythrocyte lysis, cells were resuspended in RPMI 1640 with L-glutamine (Lonza) plus 10% fetal calf serum (BioWest), 100 U/mL penicillin, 100 μg/mL streptomycin and 50 μM 2-(3 Mercaptoethanol (Merck). Cells (2×10^5) were stimulated for 48 h (at 37° C. in a humidified atmosphere with 5% CO2) in U-bottomed 96-well plates (Biofil) containing LPS (0.5 μg/mL; E. coli O111:B4), in the presence or absence of increasing peptides (0.5-20 μg/mL). Culture supernatants were harvested and mouse cytokines measured by ELISA following manufacturer's instructions (BD Biosciences OptEIA sets).

This note sets out measurements from patent publication US11660326B2, “Bacterial-binding peptides for treatment of infectious diseases and related inflammatory processes” (priority 2018, dated 2023).

With GQVEVHFRGVW (CD6.PD3), the “binding to immobilized LPS (ELISA)” value in test [1] is given as “excelled in its ability to bind”. Besides, in test [2], the “binding to immobilized LTA (ELISA)” value was “excelled in its ability to bind”. Moreover, in test [3], the IL-1β release result is recorded as “dose-dependent inhibitory effects”, the IL-6 release entry is on record as “dose-dependent inhibitory effects” and the IL-10 release entry is reported as “non-statistically significant dose-dependent increased release”.
